Measurements from EP0781283B1, “TRIAZOLOPYRIDAZINES PROCESS AND INTERMEDIATES FOR THEIR PREPARATION AND THEIR USE AS MEDICAMENTS” (Takeda Chemical Industries, Ltd., priority 1994, dated 1996).

How the values were obtained:
[1] = tested on: PAF-induced bronchoconstriction; experiment: Effect on platelet activating factor (PAF)-induced bronchoconstriction in guinea pig (Konzett-Roessler method); assay type: in vivo; conditions: P.O., one hour before PAF (1 µg/kg i.v.), male Hartley guinea pigs
Protocol: Male Hartley guinea pigs (body weights about 500 g) were used. Bronchoconstriction induced by PAF (1 µg/kg i.v.) in guinea pigs was measured according to the method of Konzett-Roessler. The guinea pig immobilized in the dorsal position, tracheotomy was anesthetized with urethane (1.5 g/kg i.v.) and the trachea was connected through a cannula to a respirator. The side branch of the tracheal cannula was connected to a broncho transducer (Model 7020, Ugobasile). The volume of overflow air was recorded on a rectigraph (Recte-Hori-8S, San-ei Sokki) through the brancho transducer. After guinea pig was given gallamine (1 mg/kg i.v.), the guinea pig was treated by PAF (1 µg/kg). The drug suspended in a 5% solution of gum arabic was administered orally in a dose of 3 mg/kg or 1 mg/kg one hour before PAF treatment.

Guinea Pig Eosinophils = experiment: Chemotaxis inhibition assay (LTB4-induced chemotaxis of guinea pig eosinophils); assay type: cell-based; conditions: test drug final concentration 10^-5 M, LTB4 10^-8 M, 2 hours; for inhibition at 10 µM: Cavia porcellus, Eosinophil, read-out: Chemotaxis Inhibition Rate (%)
Protocol: Male Hartley guinea pigs (body weights approx. 300 g) were intraperitoneally treated with 2 ml of horse serum (Whittaker Bioproducts) once a week for 8 consecutive weeks. Forty-eight (48) hours after the last treatment, 75 ml of physiological saline was infused into the peritoneal cavity and the lavage was collected and centrifuged at 400 G (1500 rpm) for 5 minutes. The pellet was suspended in 5 ml of Percoll discontinuous density, gradients (specific gravity d=1.07), layered on top of the Percoll suspensions (specific gravity d=1.112:5 ml, d=1.095:10 ml, d=1.090:10 ml, d=1.085:7 ml) and centrifuged (18°C) at 1000 G (2200 rpm) for 30 minutes. The cell layer formed in the boundary zone between the d=1.112 and d=1.095 layers was collected. The collected cell sediment was subjected to hypotonic treatment (suspended in water for 30 seconds) to remove the contaminant erythrocytes.
The sediment was washed three times with Hanks solution containing 10 mM Hepes (Dojin Kagaku) (Hanks-Hepes) and suspended in Hanks-Hepes containing 2% (w/v) human serum albumin (Wako Pure Chemical) (Hanks-Hepes-HSA) at a concentration of 5.56 x 10^6 celles/ml. The eosinophil purity was 92-96% and the viability of eosinophils was not less than 98%.
To a 24-well petri dish, which serves as a lower chamber, 600 µl of LTB4 (final concentration 10^-8 M, Cascade Biochemical Ltd.) in suspension in Hanks-Hepes-HSA solution, was transferred, followed by incubation at 37°C for 30 minutes in carbon dioxide incubator. Separately, 200 µl (5 × 10^6 cells/ml) of eosinophil suspension, previously incubated at 37°C for 15 minutes in a constant-temperature chamber, was added to Chemotaxicell (polycarbonate membrane, pore size 3 µm, thickness 10 µm), which serves as an upper chamber, after the upper chamber was attached to the 24-well petri dish. After 2 hours of reaction in the carbon dioxide incubator, the Chemotaxicell was removed; 60 µl of a 2% (w/v) solution of EDTA in physiological saline was added to the liquid in the lower chamber. After the mixture was ice cooled, the cells migrating into the lower chamber liquid were counted using a blood cell counter (Coulter Counter (trade name)). The test drug, dissolved in dimethyl formamide (DMF), was added to both the upper and lower chambers to a final concentration of 10^-5 M. [formula]

| Compound | % Inhibition of PAF-induced bronchoconstriction ([1]; 1 mg/kg) [%] | Chemotaxis Inhibition Rate (%) (Guinea Pig Eosinophils) | inhibition at 10 µM (Guinea Pig Eosinophils) [%] | % Inhibition of PAF-induced bronchoconstriction ([1]; 3 mg/kg) [%] |
| --- | --- | --- | --- | --- |
| CCc1cc2ncnn2nc1OCC(C)(C)CS(N)(=O)=O [Example 1, 6-(2,2-dimethyl-3-sulfamoyl-l-propoxy)-7-ethyl[1,2,4]triazolo[1,5-b]pyridazine] | 70 | 35 |  |  |
| CCCc1cc2ncnn2nc1OCC(C)(C)CS(N)(=O)=O [Example 2, 6-(2,2-dimethyl-3-sulfamoyl-1-propoxy)-7-n-propyl[1,2,4]triazolo[1,5-b]pyridazine] | 67 |  | 24 |  |
| CC(C)c1cc2ncnn2nc1OCC(C)(C)CS(N)(=O)=O [Example 3, 6-(2,2-dimethyl-3-sulfamoyl-1-propoxy)-7-isopropyl[1,2,4]triazolo[1,5-b]pyridazine] | 72 |  |  |  |
| CCC(CC)(COc1nn2ncnc2cc1C(C)C)CS(N)(=O)=O [Example 4, 6-(2,2-diethyl-3-sulfamoyl-1-propoxy)-7-isopropyl[1,2,4]triazolo[1,5-b]pyridazine] | 60 |  | 23 |  |
| CC(C)Cc1cc2ncnn2nc1OCC(C)(C)CS(N)(=O)=O [Example 5, 6-(2,2-dimethyl-3-sulfamoyl-1-propoxy)-7-isobutyl[1,2,4]triazolo[1,5-b]pyridazine] |  |  | 27 |  |
| CC(C)(COc1nn2ncnc2cc1C(C)(C)C)CS(N)(=O)=O [Example 6, 6-(2,2-dimethyl-3-sulfamoyl-1-propoxy)-7-t-butyl[1,2,4]triazolo[1.5-b]pyridazine] | 43 | 38 |  | 83 |
| CCCCCCc1cc2ncnn2nc1OCC(C)(C)CS(N)(=O)=O [Example 7, 6-(2,2-dimethyl-3-sulfamoyl-1-propoxy)-7-n-hexyl[1,2,4]triazolo[1,5-b]pyridazine] |  |  | 24 |  |
| Cc1cc2ncnn2nc1OCC(C)(C)CS(N)(=O)=O [Reference compound, 6-(2,2-dimethyl-3-sulfamoyl-1-propoxy)-7-methyl[1,2,4]triazolo[1,5-b]pyridazine, reference compound] |  |  | 12 | 25 |
